Consider four compounds from patent publication US5891882A, “Benzopyranopyrrole and benzopyranopyridine α-1 adenergic compounds” (priority 1997, dated 1999).

Molecules are shown by their SMILES. Where a name gives a salt, the structure may show the parent alone. Read-outs that look alike come from different tables or passages of the source.

Assay [1] deals with T1, α-1d adrenoreceptor (rat) (Rattus norvegicus, UniProt P23944).
T1 construct: expressed in transfected cells; cDNA from TULCO; membranes
T1 sequence (P23944 1-561): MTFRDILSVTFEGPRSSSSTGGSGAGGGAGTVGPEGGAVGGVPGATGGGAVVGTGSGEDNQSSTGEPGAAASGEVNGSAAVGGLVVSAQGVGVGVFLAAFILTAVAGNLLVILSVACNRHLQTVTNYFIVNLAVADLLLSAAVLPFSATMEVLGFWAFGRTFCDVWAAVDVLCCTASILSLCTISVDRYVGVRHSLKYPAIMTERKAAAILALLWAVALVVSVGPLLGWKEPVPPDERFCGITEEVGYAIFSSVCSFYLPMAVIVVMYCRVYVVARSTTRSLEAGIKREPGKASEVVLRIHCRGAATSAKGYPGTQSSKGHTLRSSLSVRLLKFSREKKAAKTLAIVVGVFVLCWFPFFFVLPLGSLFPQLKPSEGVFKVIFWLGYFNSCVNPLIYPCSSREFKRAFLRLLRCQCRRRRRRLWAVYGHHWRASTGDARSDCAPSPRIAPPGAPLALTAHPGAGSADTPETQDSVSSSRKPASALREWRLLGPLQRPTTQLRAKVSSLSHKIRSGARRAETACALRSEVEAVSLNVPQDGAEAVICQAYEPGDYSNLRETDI
Description: In vitro [3H]-prazosin radioligand binding, cloned α-1d adrenoreceptor expressed in LTK cells. The method, then: Additionally, binding affinity against the pharmacologically defined α-1A adrenoreceptor (rat submaxillary gland) was measured.
The cDNA clones encoding the α-1 adrenoreceptors (α-1a, α-1b, and α-1d) were obtained from TULCO (Triangle Universities Licensing Consortium, Research Triangle Park, N.C.) and inserted into the eukaryotic expression vector SnaB30. In this vector, expression of the adrenoreceptor gene is under the transcriptional control of an SV40 early promoter. Positive drug selection is provided by a neomycin-resistance gene. Mouse fibroblast cells (LTK) were transfected with the α1 expression plasmids and grown in Dulbecco's modified Eagle's medium (DMEM) containing 10% fetal calf serum and […]. Stable G418-resistant parental lines were generated, with successful expression of adrenoreceptor protein monitored using radioligand binding techniques. Stable single cell clones derived from the parental lines were screened in adrenoreceptor binding assays to identify clones having high adrenoreceptor density. Roller bottle cultures of the cloned lines were used to provide cell membranes for subsequent adrenoreceptor binding characterization studies. A cell line containing the SnaB30 vector expressing the human erythropoietin gene served as a negative control.
For adrenoreceptor binding assays, large scale membrane preparations were utilized in which 6 million cells were seeded into small (450 cm^2) Corning tissue culture roller bottles. 200 mL of DMEM containing 10% fetal calf serum and 300 μM G418 were added to each roller bottle. A 95% air/5% CO2 gas mixture (sterile) was injected into each roller bottle prior to sealing. The bottles were then incubated at 37° C. on a roller rack for 5 days. Cells were re-fed with fresh medium after 3 days in culture.
On the fifth day of culture, growth medium was removed from cells grown in roller bottles, and the cells were washed twice with PBS (Sigma, 120 mM NaCl, 2.7 mM KCl, 10 mM Na2 HPO4 --NaH2 PO4, pH=7.4). Cells were detached from the roller bottles by incubating for 15 minutes at 37° C. in a Tris-EDTA solution (10 mM Tris, 100 mM NaCl, 1 mM EDTA, pH=7.4). The cell suspension from each roller bottle was decanted into tared centrifuge tubes and kept on ice. An aliquot of each cell suspension was generally taken for cell counting. Cells were centrifuged at 3000×G for 5 min at 2°-4° C., washed with PBS and recentrifuged. The supernatant was decanted and the pellet weighed to determine the wet weight of cells. Cells were washed a final time in 40 vol 5 mM Tris-HCl, 5 mM EDTA, pH=7.7, and centrifuged at 40,000×G for 10 minutes. Cells were homogenized in 10 mL of 50 mM Tris-HCl, 5 mM EDTA (pH=7.4) and diluted to 40 mL/tube. Homogenates were centrifuged at 40,000×G for 10 minutes. The supernatant was decanted and the pellets rehomogenized in 50 mM Tris-HCl (pH=7.4) and centrifuged as before. The supernatant was decanted and the homogenate resuspended in 6.25 volumes (per gram wet weight) of 50 mM Tris-HCl and aliquots of the pooled homogenates frozen in liquid N2 and stored at -70° C. until the time of assay. Rat submaxillary glands were used for α-1A adrenoreceptors and were prepared essentially as described (Michel, A. D., Loury, D. N. and Whiting, R. L., Brit. J. Pharmacol. 98: 83-889 (1989)).
Receptor binding assays for α-1 adrenoreceptors were performed essentially as described by Greengrass and Bremner (Eur. J. Pharmacol. 55: 323-326 (1979)). […] Radioactivity was determined by standard liquid scintillation techniques. Data were analyzed as previously described (Hancock, A. A., Kyncl, J. J., Martin, Y. C. and DeBernardis, J. F., J Receptor Res. 8: 23-46 (1988)).

Assay [2] deals with T2, α-1A adrenoreceptor (canine prostate smooth muscle) (Canis lupus, UniProt A0A8I3NK63).
T2 construct: antagonism of phenylephrine-induced contraction (pA2, Schild)
T2 sequence (A0A8I3NK63 1-466): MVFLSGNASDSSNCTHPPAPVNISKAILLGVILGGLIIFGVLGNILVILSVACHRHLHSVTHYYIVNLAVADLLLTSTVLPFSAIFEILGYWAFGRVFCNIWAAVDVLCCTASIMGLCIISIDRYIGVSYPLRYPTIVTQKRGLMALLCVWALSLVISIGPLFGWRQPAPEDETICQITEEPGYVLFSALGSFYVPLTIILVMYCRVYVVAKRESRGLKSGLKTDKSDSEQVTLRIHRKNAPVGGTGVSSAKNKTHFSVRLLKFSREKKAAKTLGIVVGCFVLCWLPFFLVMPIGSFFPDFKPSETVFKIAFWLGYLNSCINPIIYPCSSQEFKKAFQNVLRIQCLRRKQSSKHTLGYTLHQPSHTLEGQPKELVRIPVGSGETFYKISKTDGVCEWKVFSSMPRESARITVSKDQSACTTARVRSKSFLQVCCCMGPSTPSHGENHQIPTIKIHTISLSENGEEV
Description: Functional antagonism: inhibition of phenylephrine-induced contraction of canine prostate strips. Type of assay: cell-based. Particulars: Schild plot. From the text:
Canine prostate strips were used in vitro as previously described (Hieble, J. P., Boyce, Caine, M., Fed Proc., 45: 2609-2614 (1986)), to determine antagonist potencies phenylephrine-induced contractions.
Functional assays indicative of pharmacologically defined α-1 adrenoreceptors were used to further characterize compounds. Inhibition of phenylephrine (PE)-induced contraction of canine prostate smooth muscle can be correlated with α-1A adrenoreceptor activation. […] For each of these models, agonist dose response curves were repeated against increasing concentrations of test agent to derive a Schild plot [log ([…]) against log (molarity of test agent)] to determine the pA2.
Canine prostate strips were used in vitro as previously described (Hieble, J. P., Boyce, A. J. and Caine, M., Fed. Proc., 45: 2609-2614 (1986)), to determine antagonist potencies against phenylephrine-induced contractions.

For assay [3], the target named is T3, α-1 Adrenoceptors (Rat Aorta) (Rattus norvegicus, UniProt P23944).
T3 construct: Rat Aorta; from tissue; host or cells: rat aorta
T3 sequence (P23944 1-561): T1 sequence (P23944 1-561)
Description: Functional antagonism at α-1 adrenoceptors, rat aorta. Type of assay: cell-based. The procedure, abridged:
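Phenylephrine dose-response curves for contraction were repeated against increasing test-agent concentrations. pA2 was derived by Schild plot [[…] vs log molarity of test agent].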

Setting [4] is: cloned rat α-1d in LTK cells, [3H]prazosin 0.2 nM, read-out: Radioligand Binding (Ki; nM) 1d (Rat).

What is called Ki is the equilibrium dissociation constant of an inhibitor or competing ligand from its target. With `COc1cccc2c1[C@@H]1CCN(CCCCn3c(=O)[nH]c4c(sc5ccccc54)c3=O)C[C@H]1CO2` (relative stereo) [Example 87, 3-[4-((±)-trans-10-Methoxy-1,3,4,4a,5,10b-hexahydro-2H-[1]-benzopyrano[3,4-c]pyrido-3-yl)butyl]-[1]-benzthieno[3,2-d]pyrimidine-2,4(1H,3H)-dione hydrochloride], affinity in assay [1] was put at a Ki of 0.704 nM.

Take `COc1cccc2c1[C@@H]1CCN(CCCCn3c(=O)[nH]c4c(sc5cccnc54)c3=O)C[C@H]1CO2` (relative stereo) [Example 88, 3-[4-((±)-trans-10-Methoxy-1,3,4,4a,5,10b-hexahydro-2H-[1]-benzopyrano[3,4-c]pyrido-3-yl)butyl]-pyrido[2',3':4,5]thieno[3,2-d]pyrimidine-2,4(1H,3H)-dione hydrochloride]: in assay [1], the affinity corresponds to a Ki of 0.259 nM. The “In Vitro Characterization (pA2) Dog Prostate” value in assay [2] was 8.09.

Turning to `COc1cc2[nH]c(=O)n(CCN3CC[C@H]4c5c(OC)cccc5OC[C@@H]4C3)c(=O)c2cc1OC` (relative stereo) [Example 91, 3-[2-((±)-trans-10-Methoxy-1,3,4,4a,5,10b-hexahydro-2H-[1]-benzopyrano[3,4-c]pyrido-3-yl)ethyl]-6,7-dimethoxy-quinazoline-2,4(1H,3H)-dione hydrochloride], in assay [1] (setting [4]), the Ki is 0.495 nM.

Take `COc1ccc2c(n1)sc1c(=O)n(CCCCN3C[C@@H]4COc5cccc(OC)c5[C@@H]4C3)c(=O)[nH]c12` [Example 33, hydrochloride]: the “In Vitro Characterization (pA2) Rat Aorta” value in assay [3] amounted to 9.15. Besides, the Ki in assay [1] (setting [4]) was found to be 0.701 nM.
